Literature values, collected in patent publication US12599555B2, “Formulation” (priority 2019, dated 2026).

Settings: administered by inhalation in the treatment of asthma

bioavailability: 10-15%
SMILES: O=C([O-])c1cc(=O)c2c(OCC(O)COc3cccc4oc(C(=O)[O-])cc(=O)c34)cccc2o1.[Na+].[Na+] [sodium cromoglicate, disodium 5,5′-[(2-hydroxytrimethylene)dioxy]bis-[4-oxo-4H-1-benzopyran-2-carboxylate]]
